Tested on: ghost pepper ACS1
Assay: HPLC-based method to measure the activity of ghost pepper ACS1 against carboxylic acids
Format: biochemical, ghost chili pepper
Details: for ACS1 activity with 8-methyl-trans-6-nonenoic acid or 8-methylnonanoic acid as a substrate (FIG. 9): HPLC profiles of enzymatic products, 6E compared with 8M; for activities of ACS1 against various carboxylic acids (FIG. 8): 200 μM carboxylic acids as substrate, 30 min, acyl-CoA formation by HPLC at 257 nm, 100 mM Tri buffer, pH8.0 (FIG. 8 legend)
Procedure: C2, acetic acid; C4, butyric acid; C6, hexanoic acid, C8,caprylic acid; C10, capric acid; C12, lauric acid; C14, myristic acid; C16, palmitic acid; C18, stearic acid. The assay was performed in 100 mM Tri buffer, pH8.0.
Applicants used an HPLC-based method to measure the activity of ghost pepper ACS1 (Chen et al., 2011). Briefly, reaction mixtures (400 μL) contained 0.1 M Tris-HCl, […], 2 mM DTT, 5 mM ATP, 10 mM MgCl2, 0.5 mM CoA, 0.1% Triton and 200 μM carboxylic acids. The reaction was initiated by adding 20 μl of purified enzyme and stopped after 30 min by addition of 20 μl al acetic acid. HPLC was performed with Dionex-UltiMate® 3000 LC Systems (Thermo Scientific) using an Acclaim® 120 C18 reversed-phase column (Thermo Scientific; 3 μ, 120 Å, 150×3 mm). The mobile phase consisted of solvent A (0.1% trifluoroacetic acid) and solvent B (acetonitrile). The gradient elution procedure was as follows: 0 to 5 min, 5% of B; 5 to 9 min, a linear gradient from 5 to 80% of B; 9 to 11 min, 80% of B; 11 to 12 min, 5% of B. The flow rate was 0.6 ml/min. The diode array detector collected data in the 200- to 400-nm range. For detection and quantification of substrate and products, peak areas were measured at 257 nm.

SMILES: CC(C)/C=C/CCCCC(=O)O [6E, 8-methyl-trans-6-nonenoic acid]
- ACS1 activity with 8-methyl-trans-6-nonenoic acid or 8-methylnonanoic acid as a substrate (FIG. 9): higher activity

SMILES: CC(C)CCCCCCC(=O)O [8M, 8-methylnonanoic acid]
- ACS1 activity with 8-methyl-trans-6-nonenoic acid or 8-methylnonanoic acid as a substrate (FIG. 9): showed activities

SMILES: CC(=O)O [acetic acid]
- activities of ACS1 against various carboxylic acids (FIG. 8): did not show any activity

SMILES: CCCC(=O)O [butyric acid]
- activities of ACS1 against various carboxylic acids (FIG. 8): did not show any activity

SMILES: CCCCCCCCCC(=O)O [capric acid]
- activities of ACS1 against various carboxylic acids (FIG. 8): highest activity
